In brackets after ≈: the same amount, converted by molar mass. Read-outs that look alike come from different tables or passages of the source. Numbered stars: 1 amine (or outer) side, 2 acyl side, 3 side chain; on linkers, the order of the positions; unused ones are H or OH. Bridge positions count the residues as written; N and C are the ends. Square brackets hold non-standard residues; d marks the D form. Peptide text beside a SMILES is read from it. * marks the point of attachment. hTyr(3S-OH,4S-OH,3'-OSO3H) = N[C@H](C(=O)O)[C@H](O)[C@@H](O)c1ccc(O)c(OS(=O)(=O)O)c1; Orn(4R-OH,5R-OH) = O=C([C@H](C[C@@H](O)[C@@H](O)N[*:3])N[*:1])[*:2]; Pro(3S-OH,4S-Me) = C[C@H]1CN[C@H](C(=O)O)[C@H]1O; X1 = CCCCCOc1ccc(-c2cc(-c3ccc(C(=O)*)cc3)no2)cc1; Gln(3R-OH) = NC(=O)C[C@@H](O)[C@H](N)C(=O)O; Hyp = O=C(O)[C@@H]1C[C@@H](O)CN1
Legend:
Cryptococcus neoformans = test: In vitro susceptibility (MIC), macrobroth dilution; format: cell-based; conditions: C. neoformans CN9759, drug alone
A. fumigatus biofilms = test: Biofilm assay (XTT); conditions: Aspergillus fumigatus, read-out: inhibition of biofilm formation
Procedure: Biofilm assay: To test the susceptibility of pre-formed A. fumigatus biofilms to
VOR, CAS and to the combination of CAS+BRI and VOR+BRI, a suspension containing 10^6 conidia per mL of the wild-type strain (Δku80 pyrG^+) was prepared in liquid MM and 100 μL of it was inoculated in each well of a 96-well plate. After 24 hours of incubation at 37° C., 50 μL of fresh MM containing CAS, VOR or the combination of VOR and CAS with BRI was added to the biofilm to reach the final concentration as indicated and incubated for a further 12 hours at 37° C. Wells containing untreated conidia were used as a positive control. After, the metabolic activity of the cells was evaluated by adding 50 μL of an aqueous XTT solution (1 mg/mL of XTT and 125 μM of menadione) to each well. The plate was incubated for additional 1 hour at 37° C., centrifuged (2000 rpm, 5 minutes) and 100 μL of the supernatant was transferred to a flat-bottomed 96-well plate. The absorbance was measured at 450 nm on a plate reader (Synergy HTX Multi-Mode Reader- BioTek Instruments). The XTT assay's were performed in six replicates.

[1] = tested on: A. fumigatus clinical isolates; test: Growth inhibition of clinical isolates by CAS, VOR, BRI and combinations; conditions: strain CYP15-15-109, VOR
[2] = tested on: A. fumigatus conidia infecting A549 pulmonary cells; test: Killing assay in infected A549 cells; format: cell-based, Aspergillus fumigatus; conditions: monotherapy
Procedure: Killing assay: The type II pneumocyte cell line A549 was cultured using DMEM (ThermoFischer Scientific, Paisley. […] After 24 hours of incubation in 5% CO2 the culture media was removed, and 2 ml of sterile water was added to the wells. A P1000 tip was then used to scrape away the cell monolayer and the cell suspension was collected. This suspension was then diluted 1:1000 and 100 μl was plated on Sabouraud Dextrose Agar Media before the plates were incubated a 37° C. overnight. The numbers of CFUs were determined after 24 hours of growth. A volume of 50 μl of the inoculum adjusted to 103/ml was also plated on SAB agar to correct CFU counts. The CFU percentage for each sample was calculated and the results were plotted using Graphpad Prism (GraphPad Software, Inc., La Jolla, CA, USA).

A. fumigatus [3] = test: MIC/MEC, CLSI M38-A2; format: cell-based, Aspergillus fumigatus; conditions: Aspergillus fumigatus, read-out: MIC VOR
A. fumigatus [4] = test: Alamar blue metabolic activity assay; format: cell-based, Aspergillus fumigatus; conditions: for interaction with BRI in inhibition of metabolic activity (Alamar blue): increasing concentrations + BRI 20 μM, 48 hours
A. fumigatus [5] = test: Protein kinase inhibitor (PKI) library screen with or without BRI; conditions: for growth, PKI (20 μM): PKI 20 μM alone; for growth, PKI (20 μM) + BRI (20 μM): PKI 20 μM together with BRI 20 μM
Procedure: A protein kinase inhibitors (PKI) library was also screened in combination with BRI. In total, 58 PKI were analyzed. Briefly, 100 μL of liquid MM containing 2.5×10^3 conidia/mL of the A. fumigatus wild-type strain plus 10% alamar blue was inoculated with increasing concentration of PKI (5-80 μM) in the presence (or not) of BRI (20μM) and incubated 48 hours at 37° C. without shaking. […] Plates were incubated for 48 hours at 37° C. without shaking. All experiments containing alamar blue were, after 48 hours incubation, read spectrophotometically by fluorescence and analyzed as previously described. Experiments were repeated at least three times.
To assess the mechanism of action of BRI, a collection of 58 protein kinase inhibitors (PKI, at a concentration of 20 μM; Table 4) was screened for A. fumigatus growth and corresponding metabolic activity alone or together with 20 μM BRI (Table 4).

[6] = tested on: A549 human lung cancer cells; format: cell-based; conditions: 48 h, 10 %
Procedure: Cytotoxicity assay: Cytotoxicity assays in A549 human lung cancer cells were performed using XTT assay as indicated in the manufacturers' instructions. Cells (2×10^5 cells/well) were seeded in 96-well tissue plates and incubated in Dulbecco's Modified Eagle Medium (DMEM) culture medium. After 24 hours of incubation, the cells were treated with BRI (40 and 80 μM/well), CAS (50, 100 and 200 μg/well) or in different CAS+BRI combinations. After 48 hours incubation, the cell viability was assessed by using the XTT kit (Roche Applied Science) according to the manufacturer's instructions. Formazan formation was quantified spectrophotometrically at 450 nm (reference wavelength 620 nm) using a microplate reader. The experiment was made in three replicates. Viability was calculated using the background-corrected absorbance as follows: Cell viability (%)=absorbance value of experiment well/absorbance value of control well×100.

Mucorales Mucor species = test: In vitro susceptibility (MIC), macrobroth dilution; format: cell-based; conditions: Mucor sp. 13-127, drug alone; for MIC50: lowest concentration causing 50% decrease in growth vs untreated control; for MIC100: lowest concentration without growth
Aspergillus fumigatus = test: In vitro susceptibility (MIC), macrobroth dilution; format: cell-based; conditions: drug alone; for MIC50: lowest concentration causing 50% decrease in growth vs untreated control; for MIC100: lowest concentration without growth
Candida albicans = test: In vitro susceptibility (MIC), macrobroth dilution; format: cell-based; conditions: C. albicans 5, drug alone
[7] = lowest concentration causing 50% decrease in growth vs untreated control
[8] = lowest concentration without growth

Work on `OC(Cn1cncn1)(Cn1cncn1)c1ccc(F)cc1F` [Fluconazole (FLU)] yielded an MIC50 (Cryptococcus neoformans; [7]) of 1 µg/mL (≈ 3.27 µM) and an MIC100 (Cryptococcus neoformans; [8]) of 1 µg/mL (≈ 3.27 µM).

For `C[C@@H](c1ncncc1F)[C@](O)(Cn1cncn1)c1ccc(F)cc1F` [VOR, voriconazole], the inhibition at 2 µg/mL (A. fumigatus biofilms) was roughly 10%, the inhibition at 4 µg/mL (A. fumigatus biofilms) was roughly 50% and the growth inhibition [1] was “totally inhibited”. It also gave an A. fumigatus killing [2] of roughly 60%, an MIC (A. fumigatus [3]; A. fumigatus VOR^R clinical isolate named in c0 of the row) of 8 µg/mL (≈ 22.9 µM) and an MIC (A. fumigatus [3]; A. fumigatus WT (CEA17)) of 2 µg/mL (≈ 5.73 µM).

For `CCn1c(=O)c(-c2ccc(Cl)cc2Cl)cc2cnc(Nc3ccc(N4CCNCC4)c(F)c3)nc21` [FRAX486], the “effect on BRI activity (metabolic activity, Alamar blue)” value (A. fumigatus [4]) was “potentiating the BRI activity”, the “growth, PKI (20 μM)” value (A. fumigatus [5]) was “++ (++: growth ≥80% compared to no treatment)” and the “growth, PKI (20 μM) + BRI (20 μM)” value (A. fumigatus [5]) was “+ (+: growth ≤60% compared to no treatment)”.

`C[S+](C)[O-]` [DMSO, dimethyl sulfoxide] was tested, and the “reduction of cell viability” value [6] was 80%.

For calphostin C, the “interaction with BRI in inhibition of metabolic activity (Alamar blue)” value (A. fumigatus [4]) was “synergize”.

`C[C@@H]1[C@H](O)[C@@H](C)/C=C/C=C/C=C/C=C/C=C/C=C/C=C/[C@H](O[C@@H]2O[C@H](C)[C@@H](O)[C@H](N)[C@@H]2O)C[C@@H]2O[C@](O)(C[C@@H](O)C[C@@H](O)[C@H](O)CC[C@@H](O)C[C@@H](O)CC(=O)O[C@H]1C)C[C@H](O)[C@H]2C(=O)O` [Amphotericin B (AMPB)] gave an MIC50 (Mucorales Mucor species) of 0.25 µg/mL (≈ 0.271 µM) and an MIC100 (Mucorales Mucor species) of 0.5 µg/mL (≈ 0.541 µM).

`CC[C@@H]([C@H](C)O)n1ncn(-c2ccc(N3CCN(c4ccc(OC[C@@H]5CO[C@@](Cn6cncn6)(c6ccc(F)cc6F)C5)cc4)CC3)cc2)c1=O` [Posaconazole (POSA)] gave an MIC50 (Mucorales Mucor species) of 1 µg/mL (≈ 1.43 µM) and an MIC100 (Mucorales Mucor species) greater than 16 µg/mL.

In the case of `Nc1ncnc2c1c(-c1cnc3[nH]ccc3c1)nn2C1CCCC1` [PP121], the “effect on BRI activity (metabolic activity, Alamar blue)” value (A. fumigatus [4]) is reported as “potentiating the BRI activity”, the “growth, PKI (20 μM)” value (A. fumigatus [5]) is reported as “++ (++: growth ≥80% compared to no treatment)” and the “growth, PKI (20 μM) + BRI (20 μM)” value (A. fumigatus [5]) is reported as “+ (+: growth ≤60% compared to no treatment)”.

For `COc1ccc2c(c[n+](C)c3c4cc5c(cc4ccc23)OCO5)c1OC` [chelerenthrine], the “interaction with BRI in inhibition of metabolic activity (Alamar blue)” value (A. fumigatus [4]) was “synergize”.

`C[C@@H](c1ncncc1F)[C@](O)(Cn1cncn1)c1ccc(F)cc1F` [Voriconazole (VOR)] was tested, and the MIC50 (Aspergillus fumigatus; A. fumigatus 10AF) was 0.125 µg/mL (≈ 0.358 µM) and the MIC100 (Aspergillus fumigatus; A. fumigatus 10AF) was 1 µg/mL (≈ 2.86 µM).

`CCCCCOc1ccc(-c2cc(-c3ccc(C(=O)N[C@H]4C[C@@H](O)[C@@H](O)NC(=O)[C@@H]5[C@@H](O)[C@@H](C)CN5C(=O)[C@H]([C@H](O)CC(N)=O)NC(=O)[C@H]([C@H](O)[C@@H](O)c5ccc(O)c(OS(=O)(=O)O)c5)NC(=O)[C@@H]5C[C@@H](O)CN5C(=O)[C@H]([C@@H](C)O)NC4=O)cc3)no2)cc1` [Micafungin (MICA)] (X1-[Orn(4R-OH,5R-OH)]T[Hyp][hTyr(3S-OH,4S-OH,3'-OSO3H)][Gln(3R-OH)][Pro(3S-OH,4S-Me)]; lactam 1-C) showed an MIC50 (Candida albicans; [7]) of no more than 0.03 µg/mL, an MIC100 (Candida albicans; [8]) of 0.25 µg/mL (≈ 0.197 µM) and an MIC50 (Aspergillus fumigatus; A. fumigatus 21-23) of no more than 0.06 µg/mL. For the same molecule, the MIC100 (Aspergillus fumigatus; A. fumigatus 21-23) was greater than 16 µg/mL, the MIC50 (Mucorales Mucor species) was greater than 16 µg/mL and the MIC100 (Mucorales Mucor species) was greater than 16 µg/mL.

From patent publication US20240139188A1, “Arylamide Compounds For Treatment And Prevention Of Fungal Infections” (priority 2022, published 2024)
